Experimental data: ChEMBL document CHEMBL3808382, “Discovery and Structure-Activity Relationship of a Bioactive Fragment of ELABELA that Modulates Vascular and Cardiac Functions” (J Med Chem, 2016)
One block for each compound: values may come before it. Active and inactive are the calls of the source. No cut-off for these calls is given here.

Columns and labels:
[1] = test system: Rattus norvegicus; test: Hypotensive activity in anesthetized Sprague-Dawley rat at 65 nmol/kg, iv as bolus dose; format: functional, organism-based
[2] = test system: Plasma; test: Drug level in rat plasma treated with ELA at 37 degC after 2 hrs by HPLC-MS analysis; format: ADME, cell-free
[3] = Half life in rat plasma at 37 degC; format: ADME, cell-free
[4] = test system: Heart; test: Inotropic activity in Langendorff perfused Sprague-Dawley rat heart assessed as increase in left ventricular developed pressure; format: functional, tissue-based; conditions: Heart left ventricle
[5] = test system: Rattus norvegicus; test: Hypotensive activity in anesthetized Sprague-Dawley rat assessed as drop in mean arterial pressure at 650 nmol/kg, iv as bolus dose; format: functional, Artery
[6] = target: T1, Apelin receptor (Homo sapiens, UniProt P35414); test: biochemical; format: cell-based, HEK293
T1 sequence (P35414 whole entry): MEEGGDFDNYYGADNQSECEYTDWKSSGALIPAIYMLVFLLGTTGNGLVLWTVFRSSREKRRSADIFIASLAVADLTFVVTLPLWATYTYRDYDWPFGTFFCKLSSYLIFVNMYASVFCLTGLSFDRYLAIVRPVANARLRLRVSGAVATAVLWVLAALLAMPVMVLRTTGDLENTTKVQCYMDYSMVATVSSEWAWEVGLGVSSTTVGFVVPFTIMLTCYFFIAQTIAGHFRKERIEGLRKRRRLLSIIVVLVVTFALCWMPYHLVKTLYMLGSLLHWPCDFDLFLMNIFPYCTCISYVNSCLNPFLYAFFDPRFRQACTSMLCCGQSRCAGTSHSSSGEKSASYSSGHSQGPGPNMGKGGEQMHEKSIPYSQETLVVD

[7] = target: T1, Apelin receptor; test: Agonist activity at human APJ receptor expressed in HEK-293 cells assessed as dissociation of G-alpha-i1 protein after 5 mins by BRET assay; format: cell-based, HEK293
[8] = target: T1, Apelin receptor; test: Agonist activity at human APJ receptor expressed in HEK-293 cells assessed as beta-arrestin2 recruitment after 30 mins by BRET assay; format: cell-based, HEK293
[9] = test system: Rattus norvegicus; test: Hypotensive activity in anesthetized Sprague-Dawley rat assessed as induction of hypotensive rebound at 6.5 to 293 nmol/kg, iv as bolus dose; format: functional, organism-based
[10] = test system: Rattus norvegicus; test: Hypotensive activity in anesthetized Sprague-Dawley rat assessed as maximal change in heart rate at 293 nmol/kg, iv as bolus dose; format: functional, organism-based
[11] = test system: Heart; test: Inotropic activity in Langendorff perfused Sprague-Dawley rat heart assessed as increase in left ventricular developed pressure at 0.03 nM relative to control; format: functional; conditions: Heart left ventricle
[12] = test system: Rattus norvegicus; test: Inotropic activity in Sprague-Dawley rat assessed as induction of left ventricular fractional shortening at 36 pmol/g/min, iv through 24 hrs infusion measured after 6 to 24 hrs by echocardiography; format: functional, organism-based; conditions: Heart left ventricle
[13] = test system: Rattus norvegicus; test: Increase in daily urine output in Sprague-Dawley rat at 36 pmol/g/min, iv through 24 hrs infusion measured during compound dosing; format: functional, organism-based
[14] = test system: Rattus norvegicus; test: Change in water intake in Sprague-Dawley rat at 36 pmol/g/min, iv through 24 hrs infusion measured during compound dosing; format: functional, organism-based
[15] = test system: Rattus norvegicus; test: Change in plasma volume in Sprague-Dawley rat at 36 pmol/g/min, iv through 24 hrs infusion measured during compound dosing; format: functional, organism-based
[16] = test system: Rattus norvegicus; test: Decrease in urine osmolality in Sprague-Dawley rat at 36 pmol/g/min, iv through 24 hrs infusion relative to control; format: functional, organism-based
[17] = test system: Rattus norvegicus; test: Decrease in Na+ concentration in Sprague-Dawley rat urine at 36 pmol/g/min, iv through 24 hrs infusion relative to control; format: functional, organism-based
[18] = test system: Rattus norvegicus; test: Decrease in K+ concentration in Sprague-Dawley rat urine at 36 pmol/g/min, iv through 24 hrs infusion relative to control; format: functional, organism-based

Compound: CSCC[C@H](NC(=O)[C@H](N)CS)C(=O)N1CCC[C@H]1C(=O)N[C@@H](CC(C)C)C(=O)N[C@@H](Cc1cnc[nH]1)C(=O)N[C@@H](CO)C(=O)N[C@@H](CCCNC(=N)N)C(=O)N[C@H](C(=O)N1CCC[C@H]1C(=O)N[C@@H](Cc1ccccc1)C(=O)N1CCC[C@H]1C(=O)O)C(C)C
Activity [1]: inactive

Drug metabolism [2]: metabolite_detected
Compound: H-QRPVNLTMR-OH

half-life [3]: < 2 min
EC50 [4]: 1.5 pM
Compound: CSCC[C@H](NC(=O)[C@H](CS)NC(=O)[C@H](CCCNC(=N)N)NC(=O)[C@H](CCCNC(=N)N)NC(=O)[C@@H]1CCC(=O)N1)C(=O)N1CCC[C@H]1C(=O)N[C@@H](CC(C)C)C(=O)N[C@@H](Cc1cnc[nH]1)C(=O)N[C@@H](CO)C(=O)N[C@@H](CCCNC(=N)N)C(=O)N[C@H](C(=O)N1CCC[C@H]1C(=O)N[C@@H](Cc1ccccc1)C(=O)N1CCC[C@H]1C(=O)O)C(C)C

Compound: CSCC[C@H](NC(=O)[C@@H](N)CS)C(=O)N1CCC[C@H]1C(=O)N[C@@H](CC(C)C)C(=O)N[C@@H](Cc1cnc[nH]1)C(=O)N[C@@H](CO)C(=O)N[C@@H](CCCNC(=N)N)C(=O)N[C@H](C(=O)N1CCC[C@H]1C(=O)N[C@@H](Cc1ccccc1)C(=O)N1CCC[C@H]1C(=O)O)C(C)C
Activity [5]: 10 mmHg

Drug metabolism [2]: metabolite_detected
Compound: CSCC[C@H](NC(=O)[C@@H]1CSSC[C@H](NC(=O)[C@H](CC(N)=O)NC(=O)[C@H](Cc2c[nH]cn2)NC(=O)[C@H](CCCCN)NC(=O)[C@H](CCCNC(=N)N)NC(=O)[C@H](CC(C)C)NC(=O)[C@@H](N)CCCCN)C(=O)N[C@@H](CC(C)C)C(=O)N[C@@H](CCC(N)=O)C(=O)N[C@@H](CCCNC(=N)N)C(=O)N[C@@H](CCCNC(=N)N)C(=O)N1)C(=O)N1CCC[C@H]1C(=O)N[C@@H](CC(C)C)C(=O)N[C@@H](Cc1c[nH]cn1)C(=O)N[C@@H](CO)C(=O)N[C@@H](CCCNC(=N)N)C(=O)N[C@H](C(=O)N1CCC[C@H]1C(=O)N[C@@H](Cc1ccccc1)C(=O)N1CCC[C@H]1C(=O)O)C(C)C

Ki [6]: 0.23 nM
EC50 [7]: 6.6 nM
EC50 [8]: 151 nM
Compound: CSCC[C@H](NC(=O)[C@@H]1CSSC[C@H](N)C(=O)N[C@@H](CC(C)C)C(=O)N[C@@H](CCC(N)=O)C(=O)N[C@@H](CCCNC(=N)N)C(=O)N[C@@H](CCCNC(=N)N)C(=O)N1)C(=O)N1CCC[C@H]1C(=O)N[C@@H](CC(C)C)C(=O)N[C@@H](Cc1cnc[nH]1)C(=O)N[C@@H](CO)C(=O)N[C@@H](CCCNC(=N)N)C(=O)N[C@H](C(=O)N1CCC[C@H]1C(=O)N[C@@H](Cc1ccccc1)C(=O)N1CCC[C@H]1C(=O)O)C(C)C

Compound: CSCC[C@@H](NC(=O)[C@@H](CS)NC(=O)[C@@H](CCCNC(=N)N)NC(=O)[C@H](CCCNC(=N)N)NC(=O)[C@H]1CCC(=O)N1)C(=O)N1CCC[C@@H]1C(=O)N[C@H](CC(C)C)C(=O)N[C@H](Cc1cnc[nH]1)C(=O)N[C@H](CO)C(=O)N[C@H](CCCNC(=N)N)C(=O)N[C@@H](C(=O)N1CCC[C@@H]1C(=O)N[C@H](Cc1ccccc1)C(=O)N1CCC[C@@H]1C(=O)O)C(C)C
Activity [9]: inactive
Activity [10]: Active
Activity [11]: Active
Activity [12]: Active
Activity [13]: Active
Activity [14]: inactive
Activity [15]: inactive
Activity [16]: Active
Activity [17]: Active
Activity [18]: Active
